Values joined by “and” are separate entries in the source; they are usually repeats but may differ in a detail not shown here. Equal values may be shown once. Read-outs that look alike come from different tables or passages of the source. Ada = not defined here
Columns and labels:
Human urinary kallikrein [1] = target: T1, Human urinary kallikrein (Homo sapiens, UniProt P06870); experiment: KI determination: inhibition of HUK cleavage of chromogenic substrate S-2266; assay type: biochemical
T1 construct: Human urinary kallikrein (hereinafter "HUK") was highly purified using a modification of published methods; from tissue; host or cells: human urine
T1 sequence (P06870 25-262): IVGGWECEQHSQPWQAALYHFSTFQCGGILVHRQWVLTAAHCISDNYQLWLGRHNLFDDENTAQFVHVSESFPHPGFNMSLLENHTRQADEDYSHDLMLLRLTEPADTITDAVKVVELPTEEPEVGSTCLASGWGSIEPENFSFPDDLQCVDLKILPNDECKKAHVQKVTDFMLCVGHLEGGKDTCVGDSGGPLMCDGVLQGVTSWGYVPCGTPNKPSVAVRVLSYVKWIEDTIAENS
Method: (§1) Human urinary kallikrein (hereinafter "HUK") was highly purified using a modification of published methods that employ ultrafiltration, aprotinin-CH-sepharose affinity chromatography, and Sephadex G-100 gel filtration [ole-MoiYoi et al., Proc. Natl. Acad. Sci. USA 76: 3121-3125 (1979)]. […] The pH of each fraction was determined immediately upon elution, and the fraction was neutralized by addition of 2.0 ml of 2M Tris-HCL buffer (pH 8.0).
KI Determinations: KI measurements were performed using a HP8450A diode array spectrophotometer (Hewlett Packard; Palo Alto, Calif.) attached to a Model 216 computer using the multi-component assay program modified to allow simultaneous determination of reaction velocity in four samples. Dixon plots were used to data reduction and for calculation of […]. […] Inhibition of biologically active kinin from LMW-kininogen was done at pH 7.7 and 37 C.
Procedurally, the KI values for the preliminary analogue inhibitors reported previously [Okunishi et al., Hypertension 7 (Suppl. I): I-72-I-75 (1985)] were determined by adding the chromogenic substrate S-2266 comprising D-Val-Leu-Arg-4-nitroaniline to a mixture of the analogue inhibitor and the HUK.
(§2) Initially, the inhibitor constant (KI) for each of these novel inhibitor compositions was determined using purified HUK and the tripeptide nitroanilide, S-2266. The ability to inhibit hydrolysis of the S-2266 substrate was performed in 50 mM tris-HCL buffer (pH 9.0) at 37 C. Subsequently, the ability of these novel inhibitors to inhibit human plasma kallikrein and bovine pancreatic trypsin were similarly examined using the specific substrates H-D-Pro-Phe-Arg-p-nitroanilide (S-2302) and Glu-Gly-Arg-p-nitroanilide (S-2444) respectively. The degradation products of each series was purified by HPLC and quantified by liquid scintillation counting as previously described.

Human urinary kallikrein [2] = target: T1, Human urinary kallikrein; experiment: KM determination: hydrolysis of substrate analogues by HUK (HPLC, scintillation counting); assay type: biochemical; details: analysis of the reaction products
Method: as §1
KM Determination: Hydrolysis of the substrate analogue inhibitors by HUK was measured by combining the test inhibitor at different concentrations on either side of the KM value with the enzyme at pH 9.0 for thirty minutes at 37 C. The cleavage products were separated from the starting material in the digest by HPLC on a Beckman octadecylsilane (ODS) column (1×25 cm) using a thirty minute gradient of from 0-70% CH3 CN in triethylammonium phosphate buffer (pH 7.0). The starting materials and reaction products were completely resolved under these conditions. Absorbance of the HPLC effluent was monitored at 220 nm. Individual fractions were collected and the amount of peptide degradation products was quantitated by counting in a liquid scintillation counter. Samples containing individual inhibitors were incubated without HUK and solvent blanks were also chromatographed and analyzed in the same way.
For test purposes, in these HUA cleavage studies, individual peptide sequences were synthesized, purified, and characterized as previously described herein. For these cleavage studies, doubly labelled peptides were prepared using [^3 H]-valine and […] respectively. In addition, 6.0N HCL-dioxane was used for removal of tert-butoxycarbonyl protecting groups and 90% hydrogen fluoride/10% anisole (volume/volume) for global deprotection on completion of the synthesis. After extraction and gel filtration on Sephadex G-15, final purification was completed by isocratic elution from a synchrom RP-P column (2.1×25 cm) with CH3 CN--H2 O (8 ml/min). The resultant peptides were deemed to be homogeneous by amino acid analysis; high performance liquid chromatography; thin layer chromatography; and A230 /A260 ratio analysis. […]

Human Plasma Kallikrein = Human Plasma Kallikrein (Homo sapiens, UniProt P03952); experiment: KI against plasma kallikrein with substrate S-2302; assay type: biochemical; details: read-out: K1, Human Plasma Kallikrein
Sequence of Human Plasma Kallikrein (P03952 20-638): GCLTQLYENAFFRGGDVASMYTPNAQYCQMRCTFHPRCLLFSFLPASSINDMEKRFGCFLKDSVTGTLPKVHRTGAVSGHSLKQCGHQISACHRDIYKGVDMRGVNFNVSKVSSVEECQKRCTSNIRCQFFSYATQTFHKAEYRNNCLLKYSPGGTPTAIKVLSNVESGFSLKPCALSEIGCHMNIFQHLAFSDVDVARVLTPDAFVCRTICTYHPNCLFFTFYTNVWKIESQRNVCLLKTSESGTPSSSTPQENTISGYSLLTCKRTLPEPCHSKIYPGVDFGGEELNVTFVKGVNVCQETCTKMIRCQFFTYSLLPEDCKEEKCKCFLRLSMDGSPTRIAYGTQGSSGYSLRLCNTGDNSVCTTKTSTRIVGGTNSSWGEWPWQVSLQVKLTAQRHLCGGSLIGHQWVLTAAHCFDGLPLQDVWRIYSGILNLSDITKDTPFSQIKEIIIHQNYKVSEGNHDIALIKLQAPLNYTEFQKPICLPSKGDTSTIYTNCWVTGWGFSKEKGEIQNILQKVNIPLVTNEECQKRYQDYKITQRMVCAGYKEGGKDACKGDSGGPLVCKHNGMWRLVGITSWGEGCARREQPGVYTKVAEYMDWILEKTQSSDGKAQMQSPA
Method: as §2

[3] = target: T2, bovine pancreatic trypsin (Bos taurus, UniProt P00760); experiment: KI against trypsin with substrate S-2444; assay type: biochemical; details: read-out: K1, Trypsin
T2 sequence (P00760 24-246): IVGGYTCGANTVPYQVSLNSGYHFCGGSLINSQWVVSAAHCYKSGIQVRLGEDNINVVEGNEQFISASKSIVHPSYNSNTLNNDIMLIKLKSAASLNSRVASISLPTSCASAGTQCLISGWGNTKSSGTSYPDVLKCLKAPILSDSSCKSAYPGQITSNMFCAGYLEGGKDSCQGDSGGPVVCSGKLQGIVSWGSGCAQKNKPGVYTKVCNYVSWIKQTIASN
Method: as §2

[4] = target: T3, rat submaxillary gland kallikrein (Rattus norvegicus, UniProt P00758); experiment: Rat femoral artery blood flow response to RSK during and after inhibitor infusion; assay type: in vivo
T3 sequence (P00758 25-261): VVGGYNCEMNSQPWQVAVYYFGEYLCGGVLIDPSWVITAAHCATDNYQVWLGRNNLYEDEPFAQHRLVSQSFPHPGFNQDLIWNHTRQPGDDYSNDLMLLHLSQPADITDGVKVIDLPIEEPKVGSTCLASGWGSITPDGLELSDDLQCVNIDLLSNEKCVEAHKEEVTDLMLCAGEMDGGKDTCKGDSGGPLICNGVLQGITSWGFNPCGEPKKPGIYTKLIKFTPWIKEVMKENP
From the text: (§3) In order to develop a more reproducible, less tachyphylactic system, a rat blood flow model was developed and assessed in male Sprague-Dawley rats. These animals were anesthetized subcutaneously with urethane (1.4 g/kg). Polyethylene PE-10 tubing was inserted into the right femoral artery and femoral vein for intra-arterial and intravenous injections, respectively, the arterial catheter was inserted such that the tip was located immediately proximal to the bifurcation. The rats were tracheostomized and cannulated with PE-200 tubing. A subcutaneous 23 gauge needle was left in the back of the animal for booster injections of urethane (0.35 g/kg every 2.5 hours). A blood flow probe (1.5 mm circumference) was placed on the left femoroal artery and the mean femoral arterial blood flow was monitored with a square-wave electromagnetic flowmeter (Carolina Medical Electronics, model 501). Rat submaxillary gland kallikrein (hereinafter "RSK") or porcine pancreatic kallikrein (hereinafter "PPK") was given intra-arterially, unless otherwise indicated, until a reproducible response was obtained. Each animal was then infused intravenously with KKI-7 inhibitor in DMSO (206 nmole/0.022 ml/min) or with the DMSO vehicle (0.022 ml/min). Bradykinin was also given intra-arterially to determine whether or not the KKI-7 inhibitor effected the blood flow response to bradykinin. The magnitude and duration of the responses to PPK, RSK, and bradykinin were compared before, during, and after the intravenous infusion of KKI-7 or the DMSO vehicle alone. The blood flow increase over the basal blood flow was integrated and expressed as arbitrary units or as the percent change from blood flow increased observed during the control period. The results are provided by FIG. 1 and Table IV below.

[5] = target: porcine pancreatic kallikrein (Sus scrofa, UniProt P00752); experiment: Rat femoral artery blood flow response to PPK during and after inhibitor infusion; assay type: in vivo
Sequence of porcine pancreatic kallikrein (P00752 8-246): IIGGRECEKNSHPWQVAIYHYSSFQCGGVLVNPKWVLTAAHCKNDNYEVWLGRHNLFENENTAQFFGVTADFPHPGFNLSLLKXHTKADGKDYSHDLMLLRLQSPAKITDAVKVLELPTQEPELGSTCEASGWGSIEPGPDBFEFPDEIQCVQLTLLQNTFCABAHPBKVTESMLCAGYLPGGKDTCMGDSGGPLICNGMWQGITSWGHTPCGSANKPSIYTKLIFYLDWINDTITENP
From the text: as §3

bradykinin = experiment: Rat femoral artery blood flow response to bradykinin during inhibitor infusion; assay type: in vivo
From the text: as §3, with “Each animal was then infused intravenously with KKI-7 inhibitor in DMSO (206 nmole/0.022 ml/min) or with the DMSO vehicle (0.022 ml/min). Bradykinin was also given intra-arterially to determine whether or not the KKI-7 inhibitor effected the blood flow response to bradykinin. The magnitude and duration of the responses to PPK, RSK, and bradykinin were compared before, during, and after the intravenous infusion of KKI-7 or the DMSO vehicle alone.” left out, “The results are provided by FIG. 1 and Table IV below.” left out

[6] = Mean arterial blood pressure in normotensive, salt-replete rats (infusion or bolus); assay type: in vivo, rat
Method: Subsequently, a third study utilizing normotensive, salt-replete rats was performed employing an infusion of KKI-7 at a rate of 200 ug of inhibitor per kilogram of rat per minute (200 ug/kg/min). Eight rats each received this infusion for 15 minutes during which the change in mean arterial blood pressure (Torr) was monitored. The results are provided by FIG. 2. In addition, a series of bolus injections were given to conscious, salt-replete, normotensive rats to determine the ED50 dosage necessary to cause a substantive increase in blood pressure. The results are graphically illustrated by FIG. 3 as the log-dose response effect of KKI-7 upon blood pressure.

[7] = Effects of the inhibitor infusion itself in the rat blood flow model; assay type: in vivo
From the text: as §3, with “Each animal was then infused intravenously with KKI-7 inhibitor in DMSO (206 nmole/0.022 ml/min) or with the DMSO vehicle (0.022 ml/min). Bradykinin was also given intra-arterially to determine whether or not the KKI-7 inhibitor effected the blood flow response to bradykinin. The magnitude and duration of the responses to PPK, RSK, and bradykinin were compared before, during, and after the intravenous infusion of KKI-7 or the DMSO vehicle alone.” left out, “The results are provided by FIG. 1 and Table IV below.” left out

Rat urinary kallikrein = target: T4, Rat urinary kallikrein (Rattus norvegicus, UniProt P00758); experiment: Blood pressure response to injected rat urinary kallikrein during inhibitor infusion; assay type: in vivo; details: infusion 32 nmol/min/animal, anesthetized rats, RUK 203.5 ng
T4 sequence (P00758 25-261): T3 sequence (P00758 25-261)
Method: A series of in-vivo studies were undertaken to determine the effective of the KKI-7 and KKI-8 inhibitors on the blood pressure response to glandular kallikrein. Initially, three female Dahl hypertension-resistant rats (Brookhaven Laboratories, Brookhaven, N.Y.), and four male Sprague-Dewley rats (Charles River, Wilmington, Mass.) were utilized. Each of these animals was anesthetized with Inactin (100 mg/kg ip) and cannulated in a femoral artery with PE-50 polyethylene tubing (Clay Adams, Parsippany, N.J.) which was connected to a Hewlett-Packard model 1280 blood pressure transducer and model 7702B recorder. The right jugular vein was cannulated with PE-10 tubing. The rats were tracheostomized, but respiration was not artificially assisted. Rat urinary kallikrein (hereinafter "RUK") was repeatedly administered via a venous cannula until a reproducable response was obtained. KKI-8 inhibitor was then infused using a Harvard model 901 infusion pump at a rate of 32 nmol/0.022 ml/min. RUK (203.5 ng in 50 ul) was injected during the infusion period. After the infusion was stopped, the reversibility of the inhibition was examined by further injections of RUK. The infusion of KKI-8 (32 nmol/min/animal) inhibited the very gradual and modest decrease in blood pressure otherwise elicited with RUK.

[8] = HUK, S-2266, text, read-out: KI values
[9] = S-2266, 50 mM tris-HCL pH 9.0, 37 C, read-out: K1, Human Urinary Kallikrein
[10] = iv infusion 206 nmole/0.022 ml/min in DMSO
[11] = iv infusion 206 nmole/0.022 ml/min in DMSO, 2 units PPK

CC(C)[C@H](NC(=O)[C@H](CO)NC(=O)[C@H](CCCNC(=N)N)NC(=O)[C@H](Cc1ccccc1)NC(=O)CC1CCCCC1)C(=O)N[C@@H](CCC(N)=O)C(N)=O [KKI-7, Cha-Phe-Arg-Ser-Val-Gln-NH2]
Ki (Human urinary kallikrein [1]; [8]): 4 µM | Ki (Human urinary kallikrein [1]; [9]): 4 µM | rate of cleavage by HUK relative to hexapeptides containing proline in the P3 position (Human urinary kallikrein [2]): approximately 15% | Ki (Human Plasma Kallikrein): 244 µM | Ki [3]: 12.3 µM | second phase of the response to RSK, of the control value, individual values ([4]; RSK reinjected 10-30 minutes after the infusion was started): 6% and 26% | CHANGE IN BLOOD FLOW (% OF CONTROL), RSK injected, AFTER INFUSION 30-60 min [4, 10]: 35% | CHANGE IN BLOOD FLOW (% OF CONTROL), RSK injected, AFTER INFUSION <10 min [4, 10]: 11% | CHANGE IN BLOOD FLOW (% OF CONTROL), RSK injected, DURING INFUSION 10-30 min [4, 10]: 16% | CHANGE IN BLOOD FLOW (% OF CONTROL), RSK injected, DURING INFUSION <10 min [4, 10]: 52% | response to RSK injections, of the control response, range ([4]; within the first ten minutes after infusion was begun): 49-56% | response to the injection of PPK ([5]; 2 units of PPK, during and after infusion): reduced | CHANGE IN BLOOD FLOW (% OF CONTROL), PPK injected, AFTER INFUSION 30-60 min [5, 11]: 52% | CHANGE IN BLOOD FLOW (% OF CONTROL), PPK injected, DURING INFUSION 10-30 min [5, 11]: 31% | CHANGE IN BLOOD FLOW (% OF CONTROL), PPK injected, DURING INFUSION <10 min [5, 11]: 38% | effect on the response to bradykinin (bradykinin; bradykinin injected during the inhibitor infusion): no affect | CHANGE IN BLOOD FLOW (% OF CONTROL), BK injected, DURING INFUSION <10 min (bradykinin; iv infusion 206 nmole/0.022 ml/min in DMSO, 1-2 ng bradykinin): 95% | effect on mean arterial blood pressure ([6]; bolus injection or infusion 200 ug/kg/min for 15 minutes): induces substantial increases | ED50 dose, increase in blood pressure ([6]; bolus injections, conscious, salt-replete, normotensive rats): 0.75 mg/kg | side-effects of infusing ([7]; during the experimental period): No specific side-effects | change in blood flow caused by the infusion itself ([7]; infusion in the DMSO vehicle): moderate, transient increase in blood flow

Ada-Phe-Arg-Ser-Val-Gln-NH2 (Ada-FRSVQ-NH2; reading uncertain; also: printed as Ada-Phe-Arg-Ser-Val-Gln-NH2) [KKI-8]
Ki (Human urinary kallikrein [1]; [8]): 4.2 µM | Ki (Human urinary kallikrein [1]; [9]): 4.2 µM | rate of cleavage by HUK relative to hexapeptides containing proline in the P3 position (Human urinary kallikrein [2]): approximately 15% | Ki (Human Plasma Kallikrein): 358 µM | Ki [3]: 71.8 µM | effect on decrease in blood pressure elicited with RUK (Rat urinary kallikrein): inhibited
